Values of other authors in US20170119742A1, “MEDICAMENT FOR PREVENTING AND/OR TREATING STRESS DISEASES” (ONO PHARMACEUTICAL CO., LTD., priority 2014, published 2017).

Biological target: brain NK1 receptors (Homo sapiens, UniProt P25103)
Conditions: Non-Patent Document 5; cited from earlier work

brain NK1 receptors, sequence (P25103 whole entry): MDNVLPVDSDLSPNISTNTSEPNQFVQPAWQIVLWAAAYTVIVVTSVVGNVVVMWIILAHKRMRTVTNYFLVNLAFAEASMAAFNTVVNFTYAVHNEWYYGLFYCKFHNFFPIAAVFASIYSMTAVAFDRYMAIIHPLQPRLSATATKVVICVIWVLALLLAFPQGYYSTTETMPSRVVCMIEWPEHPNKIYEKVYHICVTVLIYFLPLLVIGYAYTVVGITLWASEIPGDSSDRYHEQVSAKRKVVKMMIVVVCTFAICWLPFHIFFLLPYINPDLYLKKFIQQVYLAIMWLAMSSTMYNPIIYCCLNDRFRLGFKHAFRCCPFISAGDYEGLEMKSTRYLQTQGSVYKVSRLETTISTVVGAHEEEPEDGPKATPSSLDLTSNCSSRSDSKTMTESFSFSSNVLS

## C[C@@H](O[C@H]1OCCN(Cc2n[nH]c(=O)[nH]2)[C@H]1c1ccc(F)cc1)c1cc(C(F)(F)F)cc(C(F)(F)F)c1 [aprepitant]
  brain NK1 receptor occupancy necessary for expressing the efficacy: ≥ 90%
  plasma concentration at 90% or more brain NK1 receptor occupancy: ≥ 100 ng/mL
